Values quoted from earlier work in patent US20080032954A1, “Vascular Damaging Agents for Administration as an Intravenous Infusion” (priority 2004, published 2008).

Legend:
[1] = phase I study, patients with advanced cancer
tumour = conditions: nude rats
[2] = system: proliferating endothelial cells
[3] = patients, intravenous infusion at three-week intervals
[4] = patients, 30 minute intravenous infusion once weekly
[5] = 20 mg/kg as 24-hour subcutaneous infusion versus 5 to 10 second IV bolus

COc1ccc(/C=C\c2cc(OC)c(OC)c(OC)c2)cc1OP(=O)(O)O [combretastatin A4 phosphate]
hemodynamic and cardiac toxic events [1]: numerous hemodynamic and cardiac toxic events were observed

COc1cc2c(c(OC)c1OC)-c1ccc(OP(=O)(O)O)cc1[C@@H](NC(C)=O)CC2 [ZD6126, (5S)-5-(acetylamino)-9,10,11-trimethoxy-6,7-dihydro-5H-dibenzo[a,c]cyclohepten-3-yl dihydrogen phosphate]
toxicity compared to single intravenous bolus (tumour; [5]): significant increases in toxicity
tumour necrosis compared to single intravenous bolus (tumour; [5]): no increase in tumour necrosis
tolerability (tumour; 50 mg/kg as 24-hour subcutaneous infusion, in contrast to bolus of the same dose): not tolerated
ischemic changes on ECG (one of the two patients with troponin I elevation, 10 minute IV infusion once every three weeks): reversible grade 2 ischemic changes on ECG
elevation in troponin I (patients, 10 minute intravenous infusion once every three weeks): two patients exhibited grade 3 transient asymptomatic elevation in troponin I
blood pressure change (the other patient with troponin I elevation, 10 minute IV infusion once every three weeks): increase in blood pressure one hour after dosing
effect on tubulin cytoskeleton and cell shape [2]: disrupts the tubulin cytoskeleton causing rounding up and/or detachment of proliferating endothelial cells

COc1ccc(/C=C\c2cc(OC)c(OC)c(OC)c2)cc1O [combretastatin A4]
toxicity profile, 10-minute versus 60-minute infusion [3]: no difference in the toxicity profile

COc1ccc(/C=C\c2cc(OC)c(OC)c(OC)c2)cc1NC(=O)[C@@H](N)CO [AVE8062A]
hypotension [4]: instances of asymptomatic hypotension
